Test results reported in PubChem BioAssay (NCI).
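48-hour exposure; five concentrations; linearly interpolated endpoints. TGI is the concentration that stops growth completely.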

Columns and labels:
Experiment in all cases: NCI tumour cell line growth inhibition, 48 h
LOX IMVI melanoma = system: LOX IMVI melanoma
A549 NSCLC = system: A549 NSCLC
M14 melanoma = system: M14 melanoma
IGROV1 ovarian = system: IGROV1 ovarian
K-562 leukemia = system: K-562 leukemia
SN12C renal = system: SN12C renal
MDA-N = system: MDA-N
HCT-116 colon = system: HCT-116 colon
MCF7 breast = system: MCF7 breast
A498 renal = system: A498 renal
UO-31 renal = system: UO-31 renal
OVCAR-3 ovarian = system: OVCAR-3 ovarian

Row | Compound | TGI (LOX IMVI melanoma) [µM] | TGI (A549 NSCLC) [µM] | TGI (M14 melanoma) [µM] | TGI (IGROV1 ovarian) [µM] | TGI (K-562 leukemia) [µM] | TGI (SN12C renal) [µM] | TGI (MDA-N) [µM] | TGI (HCT-116 colon) [µM] | TGI (MCF7 breast) [µM] | TGI (A498 renal) [µM] | TGI (UO-31 renal) [µM] | TGI (OVCAR-3 ovarian) [µM]
1 | CCN(CC)c1nc(N(C)C)c2ccc(OC)cc2n1 | 42.3 | > 100 | 22.2 | > 100 | 66.6 | 48.7 | 22 | 20.1 | 25 |  |  | 
2 | CC1(C)CCCCCC(C)(CCCCCCCCCCCO)C1=O (stereo unspecified) | 28.7 | 29 |  | 32.6 | 31 | 29.9 | 32.3 | 28.8 | 29.8 | 33 | 30.9 | 29.9
3 | CC1CC(=O)C(CC(=O)O)C1C(C(=O)C(=O)Nc1c(C#N)cccc1[N+](=O)[O-])[N+](=O)[O-] (stereo unspecified) | > 100 | > 100 | > 100 | > 100 | > 100 |  |  | > 100 |  | > 100 | > 100 | > 100
4 | O=C(O)C(Cc1cnc[nH]1)N=Cc1nc(-c2ccccc2)oc1O (stereo unspecified) | > 100 | > 100 | > 100 | > 100 | > 100 | > 100 |  | > 100 |  | > 100 | > 100 | > 100
5 | COC1=CC(=O)c2c(O)ccc(O)c2C1=O |  | 4.09 | 1.89 | 37.5 | > 100 | 7.55 | 1.9 | 31.2 | 8.02 | 31.6 | 34.9 | 5.03
6 | CCCC(=O)/C=C/S/C=C/C(=O)CCC | 6.27 | > 100 | 9 | 47.9 |  | 28 |  |  | > 100 |  | > 100 | 18.7
7 | Nc1ccc(C(=O)NN2C(=O)C(Cl)C2c2ccc([N+](=O)[O-])cc2)cc1 (stereo unspecified) | 5.2 | 25.8 | 26.5 | 16.6 | 36.2 | 30 |  | 4.31 |  | 38.6 | 30.8 | 18.4
8 | O/N=C1/CCCCCC1NO (stereo unspecified) | > 100 | > 100 | > 100 | > 100 |  | > 100 | > 100 | > 100 | > 100 |  | > 100 | > 100
9 | N#CC(C#N)=Cc1ccc(C=C2SC3=C(SCCS3)S2)s1 |  | > 100 | > 100 | > 100 |  | > 100 | 3.03 | > 100 | > 100 | 42.7 | > 100 | > 100
10 | C[C@@H]1OC(=O)C[C@H]2CC(=O)N(CCC3CN(S(=O)(=O)C(F)(F)F)c4ccc(Cc5ccc6c(c5)C(CCN5C[C@H]7[C@@H](CC(=O)O[C@H]7C)CC5=O)CN6S(=O)(=O)C(F)(F)F)cc43)C[C@@H]21 (stereo partly specified) | > 100 | > 100 | > 100 |  | > 100 |  |  | > 100 | > 100 | > 100 | > 100 | > 100
11 | CN(C)CS/C(N)=N\C(O)C(Cl)(Cl)Cl (stereo unspecified) | > 100 | > 100 | > 100 | > 100 | > 100 | > 100 | > 100 | > 100 |  | > 100 | > 100 | > 100
12 | O=c1[nH]c(=O)n(C2CC(O)C(CO)O2)cc1C#Cc1cc(C(F)(F)F)cc(C(F)(F)F)c1 (stereo unspecified) | > 45.9 | > 100 | > 46.5 | > 100 | > 100 | > 100 |  | > 100 |  | > 100 | > 100 | > 100
13 | COc1cc(C2c3[nH]c4ccc(F)cc4c3C[C@H]3COC(=O)N23)cc(OC)c1O (stereo partly specified) | 31.3 | 28.3 | 43.8 | > 100 | > 100 | 35.5 |  | 25.5 | > 100 | 25.6 | 28.9 | 56
14 | O=C(Nc1ccccc1)Nn1c(-c2cccs2)nc2ccc(I)cc2c1=O | 49.1 | 49.4 | > 100 | 71.7 | 10.4 | > 100 | 74.6 | > 100 | 87.7 |  | 80.3 | 31.8
15 | CN(C)CCCNC(=O)c1cc(NC(=O)c2cc(NC(=O)[C@H]3C[C@@H]3C(=O)Nc3cc(C(=O)Nc4cc(C(=O)NCCCN(C)C)n(C)c4)n(C)c3)cn2C)cn1C | > 100 | > 100 | > 100 | > 100 | > 100 | > 100 |  | > 100 | > 100 |  |  | 
16 | O=C1SC(c2ccccc2)(c2ccccc2)c2ccccc21 | > 100 | > 100 | > 100 | > 100 | > 100 | > 100 |  | > 100 |  |  | > 100 | > 100
17 | C=CCOC(=O)CCCCCCCCCCCCCCCOC(=O)c1c(CCC[C@@H](C)O[Si](C)(C)C(C)(C)C)nc(=O)n2c1CC[C@H]2CC1(CC/C=C\[C@H](CC)O[Si](C(C)C)(C(C)C)C(C)C)OCCO1 |  | > 100 | > 100 |  |  | > 100 | > 100 | > 100 | > 100 | > 100 | 61.3 | > 100
18 | CC(C)C(Sc1nc(-c2ccccc2)c(-c2ccccc2)[nH]1)C(=O)N/N=C/c1ccc([N+](=O)[O-])cc1 (stereo unspecified) | 26 | 66.3 | 21.6 | 42.2 |  | 25.9 |  | 28 |  | 42.6 | 26.5 | 21.3
19 | Cc1cc(C)nc(NS(=O)(=O)c2ccc(NNC(=O)c3cccc4c(NNc5ccc(S(=O)(=O)Nc6nc(C)cc(C)n6)cc5)c5ccccc5nc34)cc2)n1 | 31.3 | 96.8 | 32.6 | 57.1 | 52.4 | > 100 | 43.1 | 48.2 | 62.4 |  | 51.1 | 66.5
20 | Fc1ccc(NCn2nc(COc3ccccc3Cl)n(/N=C/c3ccc(-c4ccc(Cl)cc4Cl)o3)c2=S)cc1Cl | > 100 |  | > 100 | > 100 | 43.6 |  | > 100 | > 100 | > 100 | 41.6 | > 100 | > 100
21 | CC(=O)OC1(C#N)CC2OC1C1C2N1C(=O)OC(C)(C)C (stereo unspecified) | > 100 | > 100 | > 100 | > 100 | > 100 | > 100 |  | > 100 |  | > 100 | > 100 | 

Row | Compound | TGI (LOX IMVI melanoma) [µM] | TGI (A549 NSCLC) [µM] | TGI (M14 melanoma) [µM] | TGI (IGROV1 ovarian) [µM] | TGI (K-562 leukemia) [µM] | TGI (SN12C renal) [µM] | TGI (MDA-N) [µM] | TGI (HCT-116 colon) [µM] | TGI (MCF7 breast) [µM] | TGI (A498 renal) [µM] | TGI (UO-31 renal) [µM] | TGI (OVCAR-3 ovarian) [µM]
22 | Cn1c(=O)c2nc3nnc(C#N)c(N)n3c2n(C)c1=O |  | > 100 | > 100 | > 100 | > 100 | > 100 | > 100 | > 100 | > 100 | > 100 | > 100 | > 100
23 | NC(CCCCN=Cc1nc(-c2ccccc2)oc1O)C(=O)O (stereo unspecified) | > 100 | > 100 | > 100 | > 100 | > 100 | > 100 |  | > 100 |  | > 100 | > 100 | > 100
24 | COc1ccc2c[n+](C)c3c4cc(OC)c(OC)cc4ccc3c2c1 | 17.2 | 10.3 | 32.1 | 22.1 | 34.9 | 12.6 |  | 16.8 | > 100 | > 100 | 84.6 | 17.7
25 | COc1ccccc1-c1nc2ccccc2c(=O)[nH]1 |  | > 100 | > 100 | > 100 |  | > 100 | > 100 | > 100 | > 100 | > 100 | > 100 | > 100
26 | Cc1ccc(S(=O)C[C@@]2(C(F)F)NC(=O)NC2=O)cc1 (stereo partly specified) | > 100 | > 100 | > 100 | > 100 | > 100 |  |  | > 100 |  | > 100 | > 100 | > 100
27 | O=C(Nc1nncs1)NS(=O)(=O)n1cnc2ccccc21 |  | > 100 | > 100 | > 100 |  | > 100 | > 100 | > 100 |  | > 100 |  | > 100
28 | Cc1ccc([N+](=O)[O-])cc1NC(=O)C(=O)Cc1cc(=O)oc2cc(O)ccc12 | 97 | > 100 | > 100 | > 100 | > 100 | > 100 |  | 47.5 |  | > 100 | > 100 | > 100
29 | CC(=O)OCC1OC(n2c3c(cc(C#N)c2=S)CCCCCC3)C(OC(C)=O)C(OC(C)=O)C1OC(C)=O (stereo unspecified) | 49.8 | > 100 | > 100 | > 100 | > 100 | > 100 |  | > 100 | > 100 | > 100 | > 100 | > 100
30 | c1nc(SSc2ncnc3nc[nH]c23)c2[nH]cnc2n1 | 20.4 | > 100 | > 68.7 | > 100 | > 100 | > 73.3 |  | > 100 |  | > 100 | > 100 | > 33.6
31 | CC(=O)Nc1ccc(S(=O)(=O)[N-]C2C(=O)c3ccccc3C(=O)C2[n+]2ccccc2)cc1 (stereo unspecified) | > 100 | 39.7 | 27.4 | 30 | > 100 | > 100 | 33 | > 100 | 31.8 |  | 21.2 | 32.3
32 | Cn1c(=O)c2c(ncn2CCSS(=O)(=O)O)n(C)c1=O |  | > 100 | > 100 | > 100 | > 100 | > 100 | > 100 | > 100 | > 100 | > 100 | > 100 | > 100
33 | CCn1c(-c2ccccc2)nc2c1C(=O)c1ccccc1C2=O |  | > 100 | 54 | 79.8 | > 100 | > 100 | 36.9 | 63.6 | > 100 |  |  | 49.5
34 | CC(C)[Si](OCC1CC(C[C@H]2CC(C[C@H]3C[C@@H](CO[Si](C(C)C)(C(C)C)C(C)C)OC(C)(C)O3)OC(C)(C)O2)OC(C)(C)O1)(C(C)C)C(C)C (stereo partly specified) | > 100 | > 100 | > 100 | > 100 | > 100 |  |  | > 100 |  | > 100 | > 100 | > 100
35 | CC(C)c1ccc2c(c1)C=C1OC(=O)[C@]3(C)CCC[C@@]2(C)C13 (stereo partly specified) |  | > 100 | > 100 | > 100 | > 100 | > 100 | > 100 | > 100 | > 100 |  | > 100 | > 100
36 | Cc1cc(NS(=O)(=O)c2ccc(NC(=O)c3cccc4cc5ccccc5nc34)cc2)no1 |  | 56.2 | 43 | 64.8 | 50.6 | 43.3 |  | 19.6 |  | 37 | 19.2 | 45.5
37 | O=Cc1[nH]c(=O)[nH]c(=O)c1CCl | > 81.7 | > 100 |  | > 100 | > 100 | > 100 | > 100 | > 100 | > 100 | > 100 | > 100 | > 100
38 | COP(=O)(OC)C(O)/C=C(\Cl)c1ccc(Cl)cc1 (stereo unspecified) | 52.1 | > 100 | > 100 | > 100 | > 100 | > 100 |  | 36.2 | > 100 |  | > 100 | 43.3
39 | c1ccc(SC(Sc2ccccc2)c2ccc3c(c2)OCO3)cc1 | > 100 | > 100 | > 100 | > 100 | > 100 | > 100 | > 100 | > 100 |  | > 100 | > 100 | > 100
40 | CNC(=O)c1n[nH]n(Cc2ccccc2)c1=S |  | > 100 | > 100 | > 100 | > 100 | > 100 | > 100 | > 100 | > 100 |  | > 100 | > 100
41 | CCN(CC)CCNc1ccc2ncn3c4c(OC)cccc4c(=O)c1c23 |  | 27.6 | 20.9 | 34.7 | 23.3 | 17.7 | 17.1 | 10.1 |  | 33.4 | 17.5 | 50.9
